Experiments:
[1] = Nucleophilic reagents: aldehyde content in vinyl acetate-acrylic latex; settings: Rovace 9900 pre-treated 1 week with 50 ppm N51032; reagent 50 ppm, 55° C. 2 hours, then 1 week RT
Procedure: The latex samples were first treated with a carboxylesterase enzyme (50 ppm of N51032) for 1 week to remove residual esters and also to convert residual vinyl acetate to acetaldehyde (the esterase produces vinyl alcohol, which rearranges to form acetaldehyde). Each sample was then stirred at 55° C. for 2 hours with the reagent shown below in Table 26 (added at a level of 50 ppm), and then left at room temperature for 1 week before evaluating levels of aldehyde in the headspace composition (GC-MS, 33° C.).

[2] = Esterase and nucleophilic reagent, larger scale vinyl acetate-acrylic latex; settings: VAc-acrylic latex, 50 ppm N51032 + 50 ppm reagent
Procedure: The combined effect of carboxylesterase (50 ppm N51032) and nucleophilic reagent (50 ppm in each case) was evaluated in a larger scale vinyl acetate-acrylic latex sample, Table 27, below. The combined addition was made into a 1 gallon reaction vessel, with stirring, after the polymer synthesis and chase, and while the contents were at 50° C. The contents were then allowed to cool and headspace concentrations were analyzed after 1 day at room temperature, and after 5 days at room temperature.

[3] = NaBH4 treatment: headspace composition of acrylic latex AC261; settings: 1 week, 500 ppm NaBH4 (with 60 ppm CALBL where combined)
Procedure: Headspace VOC content in aqueous compositions was determined by a method based on ASTM 3960: Standard Practice for Determining Volatile Organic Compound (VOC) Content of Paints and Related Coatings. This method uses static headspace sampling/GC-MS at 33° C. to determine the headspace concentrations of compounds above aqueous emulsion polymers or waterborne paints.
Weigh 5 g of each sample into 22 ml headspace vials with aluminum caps and crimp the cap tightly. Repeat the procedure with water blanks to be run, at a minimum, at the beginning and end of a sequence of samples. Analyze the samples via headspace GC-MS. Integrate all peaks in the resulting chromatogram that have a signal greater than five times the root-mean-square baseline noise. Once a satisfactory separation of the volatiles is achieved, mass spectral analysis and/or retention time matching against known compounds is used to identify the compounds detected. Determine the concentration of each calibrated compound in the sample headspace using the linear-least-squares equation from the calibration plot for that compound. Levels of the component in the headspace are reliable to 0.1 ppm by the GC-MS technique.

Row | SMILES | Acetaldehyde Headspace Concentration [1] [ppm] | Acetone Headspace Concentration [1] [ppm] | Ethanol Headspace Concentration [1] [ppm] | butanal Headspace Concentration [1] [ppm] | l-butanol Headspace Concentration [1] [ppm] | t-butanol Headspace Concentration [1] [ppm] | also measured
1 | Nc1ccc(CO)cc1 [4ABA, 4-aminobenzyl alcohol] | 151 | 245 | 20 | 1 | 48 | 257 | –
2 | NNc1ccc(C(=O)O)cc1 [4HB, 4-hydrazino benzoic acid] | 14 | 247 | 20 | 0 | 48 | 258 | –
3 | O=C1CC(=O)NC(=O)N1 [B, barbituric acid] | 0 | 287 | 26 | 0 | 53 | 300 | Acetaldehyde Headspace Concentration ([2]; 1 Day): 237 ppm; Acetone Headspace Concentration ([2]; 1 Day): 392 ppm; Butyl acetate Headspace Concentration ([2]; 1 Day): 1 ppm; Ethanol Headspace Concentration ([2]; 1 Day): 10 ppm; Vinyl acetate Headspace Concentration ([2]; 1 Day): 0 ppm; butanal Headspace Concentration ([2]; 1 Day): 0.4 ppm; l-butanol Headspace Concentration ([2]; 1 Day): 18 ppm; t-butanol Headspace Concentration ([2]; 1 Day): 265 ppm; Acetaldehyde Headspace Concentration ([2]; 5 Days): 140 ppm; Acetone Headspace Concentration ([2]; 5 Days): 418 ppm; Butyl acetate Headspace Concentration ([2]; 5 Days): 1 ppm; Ethanol Headspace Concentration ([2]; 5 Days): 23 ppm; Vinyl acetate Headspace Concentration ([2]; 5 Days): 0 ppm; butanal Headspace Concentration ([2]; 5 Days): 0.6 ppm; l-butanol Headspace Concentration ([2]; 5 Days): 21 ppm; t-butanol Headspace Concentration ([2]; 5 Days): 285 ppm
4 | [BH4-].[Na+] [NaBH4, sodium borohydride] | – | – | – | – | – | – | Level of 2-butenoic acid, butyl ester in headspace [3]: 65 ppm; Level of 2-methyl-3-hexanone in headspace [3]: 0 ppm; Level of Acetone in headspace [3]: 0 ppm; Level of Butanal in headspace [3]: 0 ppm; Level of Isobutyraldehyde in headspace [3]: 0 ppm; Level of benzaldehyde in headspace [3]: 0 ppm; Level of butyl acetate in headspace [3]: 104 ppm; Level of butyl acrylate in headspace [3]: 67 ppm; Level of butyl propionate in headspace [3]: 207 ppm; Level of methyl isobutyrate in headspace [3]: 17 ppm
5 | Nc1ccc(N)cc1 [PPD, p-phenylene diamine] | 0 | 279 | 25 | 0 | 58 | 304 | –
6 | NCCNCCNCCN [TET, triethylene tetramine] | 42 | 262 | 23 | 1 | 64 | 278 | –

From patent US8524809B2, “Low odor compositions and methods to attain low odor compositions” (Rohm and Haas Company, priority 2010, dated 2013)
